# Experimental data as given in patent US20240424115A1, “LONG-ACTING INTERLEUKIN-15 RECEPTOR AGONISTS AND RELATED IMMUNOTHERAPEUTIC COMPOSITIONS AND METHODS” (Nektar Therapeutics, priority 2017, published 2024).
# What was measured:
# [1] = Single dose PK study in mice (plasma concentration)
# Procedure: C57BL/6 mice (n=3/group) were administered a single intravenous dose of IL-15 (control) at 0.3 mg/kg) or of Conjugate 2 at a dose of 0.3 mg/kg. Following administration, blood samples were collected at various time points post administration (24 hours, 48 hours, 78 hours, 96 hours). […] Finally, at each time point, plasma concentration of drug was determined.
# For PK analysis, Conjugate 1 was administered as a single intravenous dose at 0.3 mg/kg in balb/c mice (n=3). Following administration, mice were humanely sacrificed and plasma was collected 24, 48, 72, 96, 120 and 144 hours post treatment. From a separate study, mice were administered a single intravenous dose of IL-15 (0.5 mg/kg). Samples from these mice were collected at the indicated time points within 6 hours of treatment.
# Balb/c mice (n=3/group) were administered a single intravenous dose of IL-15 (500 ug/kg) or of Conjugate 1 at 10, 30, 100, 300 and 1000 μg/kg. Blood samples were collected at the indicated time points post administration (conjugate 1:24, 48, 72, 96, 120, 144, 240 hours; IL-15 control: 0.03, 0.08, 0.25, 0.5, 1, 2, 4, 6, 8, hours) and plasma concentration of drug was determined.
# CD4, CD8, and NK cells = assay: In vivo IL-15 signaling (STAT5 phosphorylation in lymphocytes) in mice
# Description: Conventional approaches, such as those involving radiolabeling a compound, administering the compound in vivo, and determining its clearance, can be used to assess whether a compound proposed to be a long-acting, IL-15 R agonist is “long-acting” (i.e., has a clearance that is longer than that of IL-15 administered in the same in vivo system). For the purposes herein, the long acting nature of a long-acting IL-15 R agonist may be, and is typically determined using flow cytometry to measure STAT5 phosphorylation in lymphocytes at various time points after administration of the agonist to be evaluated in mice. As a reference, the signal is lost by around 24 hours with IL-15, but is sustained for a period greater than that for a long-acting IL-15 agonist.
# Mice were dosed as described in Example 6 above to assess in-vivo signaling as assessed by degree of STAT5 phosphorylation. Degree of STAT5 phosphorylation in various lymphocytes (CD4, CD8, and NK cells) was assessed by staining whole blood for leukocyte surface markers and pSTAT5, followed by measurement by flow cytometry. Results are shown in FIGS. 8A and 8 B for IL-15 and for Conjugate 2, respectively.
# [PK methods previously described herein].
# STAT5 phosphorylation in CD4 T cells was determined by using a CD3+CD4+CD8-pSTAT5+ marker combination. FIG. 43 is a plot of pSTAT5 phosphorylation percent positivity within CD4 T cells over time (at 0.25, 1, 6, 24, 48, 72, 96 and 120 hours post administration) at a dose of 0.03 mg/kg (blue, solid squares) or 0.3 mg/kg (orange, solid circles). The vehicle over time (black) and pre-dose (open circles) levels are also shown.
# CTLL-2 cells = assay: Potency assay based on STAT5 phosphorylation in CTLL-2 cells; type: cell-based, murine
# Procedure: In the phospho-STAT5 assay following receptor binding, downstream cell signaling can then activate Signal Transducer and Activator of Transcription 5 (STAT5) through phosphorylation to promote gene expression to induce cell proliferation. The activation of phosho-STAT5 is measured in CTLL-2 cells, a murine T lymphocyte cell line, using the phospho-STAT5/total STAT5 multiplexed assay (Meso Scale Discovery, MD) in response to sample and reference treatment for ˜10 minutes.
# One day prior to the assay, CTLL-2 cells were split into fresh growth medium [RPMI 1640 supplemented with 10% FBS, 10% T-cell culture supplement (catalog #354115, Corning, Inc., Tewksbury, MA), 2 mM L-glutamate, and 1 mM sodium pyruvate]. On the day of assay, cells were pre-incubated in assay medium (RPMI 1640 supplemented with 1% FBS, 2 mM L-glutamate, and 1 mM sodium pyruvate) for at least four hours, and then plated in assay medium in a 96-well plate at 50,000 cells/well. Dilutions of the test article were prepared in an appropriate buffer immediately prior to assay. Stimulation of CTLL-2 cells was initiated by the transfer of 25X test article solutions to triplicate wells containing CTLL-2 cells. Plates were incubated at 37° C., 5% CO2 for 10 minutes, and the reaction was stopped by cell lysis. Detection of phospho-STAT5 and total STAT5 protein levels in cell lysates was performed using the MSD Phospho (Tyr694)/Total STATa,b Whole Cell Lysate Kit (Meso Scale Discovery, MD).
# human PBMCs = assay: HuPBMC-pStat5 assay (flow cytometry, lymphocyte subpopulations); type: cell-based
# Procedure: The potency of IL-15 or long acting IL-15 R agonists on various human lymphocyte subpopulations was determined by phospho-STAT5 (Y694) dose response assay. Frozen human PBMCs from multiple donors were supplied by AllCells. 1×10^6 cells/100ul were cultured in complete RPMI media for 2 hours and then incubated with the indicated concentrations (10,000ng/ml-0.001ng/ml serial dilutions) of IL-15 or conjugates for 20minutes at 37c. The cells were then fixed (using BD Cytofix) and permeabilized (using 100% pre-chilled methanol) and stained with antibodies for CD3, CD4, CD8, CD4-Tregs (CD4+CD25+Foxp3+), CD56 and phosphorylated STAT5 (Y694) before analysis by flow cytometry. Concentration-response relationships were used to calculate the EC50 values.
# Assessment of in-vitro activity of exemplary long-acting IL-15 receptor agonists (e.g., Conjugates 1, 3 and 5) was carried out by investigating signaling in NK cell subsets of human PBMCs as shown in FIGS. 10A (CD56bright cells) and 10B (CD56dim cells). STAT5 phosphorylation was evaluated as previously described for assessing IL-15 signaling activity of the long acting IL-15 receptor agonists.
# A second study was conducted to investigate/compare the pStat5 response of human PBMCs obtained from two donors (CD3, CD4, CD8, CD56 (bright and dim) and CD4-Tregs (CD25+Foxp3+)) to IL-15, Conjugate 1 and Conjugate 5. An […] dose response was examined using a 10-fold dilution with a dose range of 0.001-10000 ng/ml and a 20 min stimulation. Each of the test articles was diluted in IL-15 buffer+0.1% BSA.
# Assessment of in vitro activity of Conjugate 1 was carried out by investigating NK and CD8 JAK/STAT signaling after treatment of human PBMCs with IL-15 or Conjugate 1 at a dose range of 0.001-10000 ng/ml. STAT5 phosphorylation was assessed as previously described.
substance,measurement,setting,value
mono-mPEG-SBA40K-IL-15 [Conjugate 1],half-life,"[1]; Balb/c mice, single i.v. 10-1000 μg/kg (Example 23)",approximately 14 hours
same,half-life,"[1]; balb/c mice, single i.v., Conjugate 1 0.3 mg/kg, IL-15 0.5 mg/kg (Example 16)",approximately 12 hours
same,pSTAT5 expression in CD4 T cells,"CD4, CD8, and NK cells; Balb/c mice, single i.v. 0.03 or 0.3 mg/kg, compared to CD8 and NK cells",relatively less increase in pSTAT5 expression
same,pSTAT5 percent positivity within NK cells,"CD4, CD8, and NK cells; balb/c mice, single injection 0.03 and 0.3 mg/kg",induces robust and sustained pSTAT5 signaling in NK cells
same,pSTAT5 percent positivity within CD8 T cells,"CD4, CD8, and NK cells; balb/c mice, single injection 0.03 and 0.3 mg/kg, 120 h",induces sustained pSTAT5signaling in CD8 T cells
same,reduction in potency when compared to IL-15,CTLL-2 cells; EC50 CTLL-2 pSTAT5,two-fold
same,EC50 (ng/mL) CTLL-2 pSTAT5,CTLL-2 cells; Table 2B,0.62 ng/mL
same,EC50 (ng/ml)-% pSTAT5 CD3 donor1,"human PBMCs; CD3 cells, donor1, 20 min stimulation",0.75 ng/ml
same,EC50 (ng/ml)-% pSTAT5 CD3 donor2,"human PBMCs; CD3 cells, donor2, 20 min stimulation",1.1 ng/ml
same,EC50 (ng/ml)-% pSTAT5 Treg donor1,"human PBMCs; CD4-Treg cells, donor1",0.23 ng/ml
same,EC50 (ng/ml)-% pSTAT5 Treg donor2,"human PBMCs; CD4-Treg cells, donor2",0.37 ng/ml
same,EC50 (ng/ml)-% pSTAT5 CD4 donor1,"human PBMCs; CD4 cells, donor1",0.75 ng/ml
same,EC50 (ng/ml)-% pSTAT5 CD4 donor2,"human PBMCs; CD4 cells, donor2",0.83 ng/ml
same,maximum pSTAT5 response compared with IL-15,human PBMCs; CD8 and CD56 bright NK cells,achieves the same maximum response as conventional IL-15
same,EC50 (ng/ml)-% pSTAT5 CD8 donor1,"human PBMCs; CD8 cells, donor1",0.76 ng/ml
same,EC50 (ng/ml)-% pSTAT5 CD8 donor2,"human PBMCs; CD8 cells, donor2",1.54 ng/ml
same,EC50 (ng/ml)-% pSTAT5 CD56bright donor1,"human PBMCs; CD56bright cells, donor1",1.4 ng/ml
same,EC50 (ng/ml)-% pSTAT5 CD56bright donor2,"human PBMCs; CD56bright cells, donor2",1.9 ng/ml
same,EC50 (ng/ml)-% pSTAT5 CD56dim donor1,"human PBMCs; CD56dim cells, donor1",2.9 ng/ml
same,EC50 (ng/ml)-% pSTAT5 CD56dim donor2,"human PBMCs; CD56dim cells, donor2",5.9 ng/ml
same,less potent than IL-15 in engaging CD8 cells,"human PBMCs; Example 22, % pSTAT5",5.5 X
same,less potent than IL-15 in engaging CD56 bright NK cells,"human PBMCs; Example 22, % pSTAT5",15 X
same,IL-15 signaling (STAT5 phosphorylation) in huPBMCs,"human PBMCs; NK cell subsets CD56bright, CD56dim",potently induces such signaling
same,EC50 (ng/ml) pSTAT5 CD56bright NK,"human PBMCs; Table 3, CD56bright NK cells",2.4 ng/ml
same,EC50 (ng/ml)-% pSTAT5 CD3,"human PBMCs; Table 7 Summary Table, CD3",0.75 ng/ml
same,EC50 (ng/ml)-% pSTAT5 CD4,"human PBMCs; Table 7 Summary Table, CD4",0.75 ng/ml
same,EC50 (ng/ml)-% pSTAT5 CD8,"human PBMCs; Table 7 Summary Table, CD8",0.76 ng/ml
same,EC50 (ng/ml)-% pSTAT5 CD56bright,"human PBMCs; Table 7 Summary Table, CD56bright",1.4 ng/ml
same,EC50 (ng/ml)-% pSTAT5 CD56dim,"human PBMCs; Table 7 Summary Table, CD56dim",2.9 ng/ml
same,EC50 (ng/ml)-% pSTAT5 Treg,"human PBMCs; Table 7 Summary Table, Treg",0.23 ng/ml
same,"IL-15 more potent than conjugate in inducing CD3, CD4, CD8 and Treg cells",human PBMCs; Table 7 data,3-4 fold
same,IL-15 more potent than conjugate in inducing CD56bright and CD56dim cells,human PBMCs; Table 7 data,approximately 12 fold
same,"IL-15 more potent than conjugate, CD3 and CD4 induction","human PBMCs; pSTAT5 EC50, CD3 and CD4",4-6 fold
same,"IL-15 more potent than conjugate, CD56 induction","human PBMCs; pSTAT5 EC50, CD56",~10 fold
same,"IL-15 more potent than conjugate, Treg and CD8 induction","human PBMCs; pSTAT5 EC50, Treg and CD8",3-5 fold
same,EC50 (ng/ml)-MFI CD3 donor1,"human PBMCs; pSTAT5 MFI, CD3 cells, donor1",22.1 ng/mL
same,EC50 (ng/ml)-MFI CD3 donor2,"human PBMCs; pSTAT5 MFI, CD3 cells, donor2",108.8 ng/mL
same,EC50 (ng/ml)-MFI Treg donor1,"human PBMCs; pSTAT5 MFI, CD4-Treg cells, donor1",2.5 ng/mL
same,EC50 (ng/ml)-MFI Treg donor2,"human PBMCs; pSTAT5 MFI, CD4-Treg cells, donor2",2.9 ng/mL
same,EC50 (ng/ml)-MFI CD4 donor1,"human PBMCs; pSTAT5 MFI, CD4 cells, donor1",23.54 ng/mL
same,EC50 (ng/ml)-MFI CD4 donor2,"human PBMCs; pSTAT5 MFI, CD4 cells, donor2",106.5 ng/mL
same,EC50 (ng/ml)-MFI CD8 donor1,"human PBMCs; pSTAT5 MFI, CD8 cells, donor1",16.73 ng/mL
same,EC50 (ng/ml)-MFI CD8 donor2,"human PBMCs; pSTAT5 MFI, CD8 cells, donor2",99.76 ng/mL
same,EC50 (ng/ml)-MFI CD56bright donor1,"human PBMCs; pSTAT5 MFI, CD56bright cells, donor1",7.8 ng/mL
same,EC50 (ng/ml)-MFI CD56bright donor2,"human PBMCs; pSTAT5 MFI, CD56bright cells, donor2",12.4 ng/mL
same,EC50 (ng/ml)-MFI CD56dim donor1,"human PBMCs; pSTAT5 MFI, CD56dim cells, donor1",23.25 ng/mL
same,EC50 (ng/ml)-MFI CD56dim donor2,"human PBMCs; pSTAT5 MFI, CD56dim cells, donor2",73.05 ng/mL
